How the values were obtained:
[1] = test system: SRS-A release from lung tissue; assay: Release of slow reacting substance of anaphylaxis (SRS-A) from sensitized lung tissue; format: cell-based, Guinea-pigs; conditions: Cavia porcellus, sensitized guinea-pig lung tissue, egg albumen 100 μg/ml; for inhibition at 0.01 µg/mL: 0.01 μg/ml; for inhibition at 0.1 µg/mL: 0.1 μg/ml
Description: Release of slow reacting substance of analphylaxis (SRS-A):
Guinea-pigs were sensitized with egg albumen, which was administered as a 10% solution, 100 mg both intraperitoneally and subcutaneously. Three to four weeks later the animals were killed by a blow on the head and the heart and lungs removed from the body and cleaned of blood. The lung tissue was dissected free from the heart, trachea and major bronchioles and then finely chopped. Portions of the lung tissue in 5 ml of Tyrode solution were preincubated with each test solution (50 μl) containing a test compound for 5 minutes at 37° C, to those were added 50 μl of egg albumen (100 μg/ml in a final concentration). The incubation mixture were further incubated for 15 minutes at 37° C. After centrifugation, the supernatant was assayed for SRS-A. The activity of SRS-A was assayed on the isolated guinea-pig ileum in the presence of atropine (5 × 10^-8 g/ml) and pyribenzamine (10^-7 g/ml). The percent inhibition was calculated using the following formula: [formula]

[2] = test system: histamine release from the peritoneal cavity; assay: Histamine release from the peritoneal cavity (dextran i.p.); format: in vivo, male Wistar rats; conditions: Rattus norvegicus, ip; dose required for 50% inhibition; test compound i.p., dextran 180 mg/kg i.p.; rats
Description: Histamine release from the peritoneal cavity:
The method used was similar to that described by Hanahoe et al. (T.H.P. Hanahoe, A. Holliman, D. Gordon and W. Wieczorek, J. Pharm. Pharmac. 24, 666 (1972)). Groups of ten male Wistar rats (200-230 g) were injected intraperitoneally with 1 ml normal saline (0.9%) containing different amounts of test compound. A half minutes later they received an intraperitoneal injection of dextran (180 mg/kg, molecular weight about 250,000) or saline as vehicle control. Five minutes later the animals were killed, the peritoneal fluid was collected and centrifuged, and the supernatant was assayed fluorophotometrically for histamine. […] The percent inhibition was calculated using the following formula: [formula] The ED50, the dose required for 50% inhibition, was calculated from the dose-responsive curve.

[3] = test system: histamine release from the peritoneal cavity; conditions: dextran-induced histamine release, in this experimental method (Hanahoe et al.); cited from earlier work

Row | Compound | inhibition at 0.01 µg/mL [1] [%] | inhibition at 0.1 µg/mL [1] [%] | ED50 [2] [µg/kg] | inhibition of the release of histamine [3]
1 | O=c1c2cc(-c3nnn[nH]3)ccc2oc2ncccc12 [Compound A, 7-(5-1H-tetrazolyl)-5-oxo-5H-[1]benzopyrano[2,3-b]pyridine] | 25.2 | 35.3 | 1 | 
2 | O=C(O)c1cc(=O)c2c(OCC(O)COc3cccc4oc(C(=O)O)cc(=O)c34)cccc2o1 [disodium cromoglycate] |  |  |  | inhibits markedly
3 | O=c1c2cccnc2oc2c(Cl)cc(-c3nnn[nH]3)cc12 [Compound B, 9-chloro-7-(5-1H-tetrazolyl)-5-oxo-5-H-[1]benzopyrano[2,3-b]-pyridine] | 19 | 22.6 | 0.25 | 

Source: patent US4085111A, “1H-tetrazole derivatives” (Yoshitomi Pharmaceutical Industries, Ltd., priority 1974, dated 1978)
